Reference: patent publication US11419806B2, “Prebiotic oral care methods using a saccharide” (Colgate-Palmolive Company, priority 2013, dated 2022)

Columns and labels:
Assay in all cases: Twenty-four hour biofilm growth (crystal violet)
Assay type in all cases: cell-based
A. actinomycetemcomitans = tested on: A. actinomycetemcomitans
Experimental: (§1) The increase in biofilm formation of the tested bacteria in response to selected saccharides (D-turanose, D-lactitol, myo-inositol, and N-acetyl-D-mannosamine) was investigated by setting up biofilm growth assays in a nutritionally rich medium (brain heart infusion broth (BHI), Oxoid), over 24 hours. Late exponential growth phase liquid cultures were prepared by transferring the respective bacterium from blood agar plates to BHI and overnight incubation at 37° C. in an anaerobic atmosphere for A. viscosus, V. parvula, P. gingivalis, P. intermedia, T. forsythia, A. naeslundii, and C. sputigena, and in a 5% CO2 environment for S. salivarius, S. sanguinis, S. mitis, A. actinomycetemcomitans, S. mutans, and S. gordonii. Overnight cultures were transferred to BHI and adjusted to a concentration of 1×10^7 CFU/ml by measuring the optical density at 600 nm (OD600) (BioRad SmartSpec 3000). For each strain, 200 μl of the bacterial suspension was added to a 96-well plate containing 20 μl of the respective saccharides. Final concentrations of the saccharides were set to 5, 10, 20 and 25 μmol/ml. […] Additionally, for each bacterium tested, a background control, to correct for background staining, was added. This background control contained the bacterium tested and 0.03 weight % chlorhexidine, as an antiseptic. Plates were incubated as previously described. After 24 hrs the supernatant was removed from the wells of the plates. The wells were washed twice with 1×100 μL PBS (phosphate buffered saline), fixed for 20 minutes with 96% vol. ethanol (96% vol. solution in water) and the biofilm retained at the bottom of the wells was stained with 1 weight % crystal violet (1 weight % solution in water). The bound dye was dissolved with 5% vol. acetic acid (5% vol. solution in water). Quantification of the stained biofilm was performed by measuring the absorbance at 630 nm using a Multiskan Ascent microplate reader (Thermo Scientific).
(§2) The experiment was carried out on three different days (thus providing 3 biological replicas) and each day the experiment was carried out in quadruple (thus providing 4 technical replicas) for each combination of bacterium with saccharide and for each control. For each day and for each combination, the average (mean) of the values obtained (as detailed above) for the four technical replicas was calculated to provide a single value for each combination on each day. The values shown in Tables 7a, 7b, 8a, 8b, below, are the average (mean) of the three single values obtained for each combination of bacterium with saccharide.

A. naeslundii = tested on: A. naeslundii
Experimental: as §1, §2

A. viscosus = tested on: A. viscosus
Experimental: as §1, §2

C. sputigena = tested on: C. sputigena
Experimental: as §1, §2

P. gingivalis = tested on: P. gingivalis
Experimental: as §1, §2

P. intermedia = tested on: P. intermedia
Experimental: as §1, §2

S. gordonii = tested on: S. gordonii
Experimental: as §1, §2

S. mitis = tested on: S. mitis
Experimental: as §1, §2

S. mutans = details: for biofilm growth: OD 630 nm at 24 hrs divided by OD of control (control = 1): S mutans
Experimental: as §1, §2

S. salivarius = tested on: S. salivarius
Experimental: as §1, §2

S. sanguinis = tested on: S. sanguinis
Experimental: as §1, §2

T. forsythia = tested on: T. forsythia
Experimental: as §1, §2

V. parvula = tested on: V. parvula
Experimental: as §1, §2

In the case of OC[C@@H](O)[C@@H](O[C@H]1O[C@H](CO)[C@H](O)[C@H](O)[C@H]1O)[C@H](O)[C@@H](O)CO [D-Lactitol, 4-O-α-D-galactopyranosyl-D-glucitol], the “biofilm growth: OD 630 nm at 24 hrs divided by OD of control (control = 1)” value (A. actinomycetemcomitans; 5 μmol/ml) is reported as 0.6593, the “biofilm growth: OD 630 nm at 24 hrs divided by OD of control (control = 1)” value (A. actinomycetemcomitans; 10 μmol/ml) is reported as 0.6496 and the “biofilm growth: OD 630 nm at 24 hrs divided by OD of control (control = 1)” value (A. actinomycetemcomitans; 20 μmol/ml) is reported as 0.8502. The “biofilm growth: OD 630 nm at 24 hrs divided by OD of control (control = 1)” value (A. actinomycetemcomitans; 25 μmol/ml) was 0.8372, the “biofilm growth: OD 630 nm at 24 hrs divided by OD of control (control = 1)” value (A. naeslundii; 5 μmol/ml) was 1.0191 and the “biofilm growth: OD 630 nm at 24 hrs divided by OD of control (control = 1)” value (A. naeslundii; 10 μmol/ml) was 1.0015. For the same compound, the “biofilm growth: OD 630 nm at 24 hrs divided by OD of control (control = 1)” value (A. naeslundii; 20 μmol/ml) was 1.0337, the “biofilm growth: OD 630 nm at 24 hrs divided by OD of control (control = 1)” value (A. naeslundii; 25 μmol/ml) was 1.0428 and the “biofilm growth: OD 630 nm at 24 hrs divided by OD of control (control = 1)” value (A. viscosus; 5 μmol/ml) was 0.6832. The “biofilm growth: OD 630 nm at 24 hrs divided by OD of control (control = 1)” value (A. viscosus; 10 μmol/ml) was 0.7502, the “biofilm growth: OD 630 nm at 24 hrs divided by OD of control (control = 1)” value (A. viscosus; 20 μmol/ml) was 0.9528 and the “biofilm growth: OD 630 nm at 24 hrs divided by OD of control (control = 1)” value (A. viscosus; 25 μmol/ml) was 0.9153. For the same compound, the “biofilm growth: OD 630 nm at 24 hrs divided by OD of control (control = 1)” value (C. sputigena; 5 μmol/ml) was 0.5867, the “biofilm growth: OD 630 nm at 24 hrs divided by OD of control (control = 1)” value (C. sputigena; 10 μmol/ml) was 0.5658 and the “biofilm growth: OD 630 nm at 24 hrs divided by OD of control (control = 1)” value (C. sputigena; 20 μmol/ml) was 0.6841. For the same compound, the “biofilm growth: OD 630 nm at 24 hrs divided by OD of control (control = 1)” value (C. sputigena; 25 μmol/ml) was 0.7591, the “biofilm growth: OD 630 nm at 24 hrs divided by OD of control (control = 1)” value (P. gingivalis; 5 μmol/ml) was 0.9536 and the “biofilm growth: OD 630 nm at 24 hrs divided by OD of control (control = 1)” value (P. gingivalis; 10 μmol/ml) was 0.9616. For the same compound, the “biofilm growth: OD 630 nm at 24 hrs divided by OD of control (control = 1)” value (P. gingivalis; 20 μmol/ml) was 0.8995, the “biofilm growth: OD 630 nm at 24 hrs divided by OD of control (control = 1)” value (P. gingivalis; 25 μmol/ml) was 0.9701 and the “biofilm growth: OD 630 nm at 24 hrs divided by OD of control (control = 1)” value (P. intermedia; 5 μmol/ml) was 1.0504. The “biofilm growth: OD 630 nm at 24 hrs divided by OD of control (control = 1)” value (P. intermedia; 10 μmol/ml) was 1.0396, the “biofilm growth: OD 630 nm at 24 hrs divided by OD of control (control = 1)” value (P. intermedia; 20 μmol/ml) was 1.1500 and the “biofilm growth: OD 630 nm at 24 hrs divided by OD of control (control = 1)” value (P. intermedia; 25 μmol/ml) was 1.1288. For the same compound, the “biofilm growth: OD 630 nm at 24 hrs divided by OD of control (control = 1)” value (S. gordonii; 5 μmol/ml) was 0.6036, the “biofilm growth: OD 630 nm at 24 hrs divided by OD of control (control = 1)” value (S. gordonii; 10 μmol/ml) was 0.5959 and the “biofilm growth: OD 630 nm at 24 hrs divided by OD of control (control = 1)” value (S. gordonii; 20 μmol/ml) was 0.4885. The “biofilm growth: OD 630 nm at 24 hrs divided by OD of control (control = 1)” value (S. gordonii; 25 μmol/ml) was 0.5149, the “biofilm growth: OD 630 nm at 24 hrs divided by OD of control (control = 1)” value (S. mitis; 5 μmol/ml) was 0.6696 and the “biofilm growth: OD 630 nm at 24 hrs divided by OD of control (control = 1)” value (S. mitis; 10 μmol/ml) was 0.5919. For the same compound, the “biofilm growth: OD 630 nm at 24 hrs divided by OD of control (control = 1)” value (S. mitis; 20 μmol/ml) was 0.8007, the “biofilm growth: OD 630 nm at 24 hrs divided by OD of control (control = 1)” value (S. mitis; 25 μmol/ml) was 0.8340 and the “stimulation of biofilm formation of S. mutans” value (S. mutans; Example 3) was “does not stimulate”. The “biofilm growth: OD 630 nm at 24 hrs divided by OD of control (control = 1)” value (S. mutans; 5 μmol/ml) was 0.9767, the “biofilm growth: OD 630 nm at 24 hrs divided by OD of control (control = 1)” value (S. mutans; 10 μmol/ml) was 0.9333 and the “biofilm growth: OD 630 nm at 24 hrs divided by OD of control (control = 1)” value (S. mutans; 20 μmol/ml) was 1.1068. The “biofilm growth: OD 630 nm at 24 hrs divided by OD of control (control = 1)” value (S. mutans; 25 μmol/ml) was 1.0108, the “biofilm growth: OD 630 nm at 24 hrs divided by OD of control (control = 1)” value (S. salivarius; 5 μmol/ml) was 2.1471 and the “biofilm growth: OD 630 nm at 24 hrs divided by OD of control (control = 1)” value (S. salivarius; 10 μmol/ml) was 4.8849. The “biofilm growth: OD 630 nm at 24 hrs divided by OD of control (control = 1)” value (S. salivarius; 20 μmol/ml) was 5.5726, the “biofilm growth: OD 630 nm at 24 hrs divided by OD of control (control = 1)” value (S. salivarius; 25 μmol/ml) was 6.4158 and the “biofilm growth: OD 630 nm at 24 hrs divided by OD of control (control = 1)” value (S. sanguinis; 5 μmol/ml) was 1.2160. The “biofilm growth: OD 630 nm at 24 hrs divided by OD of control (control = 1)” value (S. sanguinis; 10 μmol/ml) was 1.5548, the “biofilm growth: OD 630 nm at 24 hrs divided by OD of control (control = 1)” value (S. sanguinis; 20 μmol/ml) was 1.8523 and the “biofilm growth: OD 630 nm at 24 hrs divided by OD of control (control = 1)” value (S. sanguinis; 25 μmol/ml) was 2.2341. The “biofilm growth: OD 630 nm at 24 hrs divided by OD of control (control = 1)” value (T. forsythia; 5 μmol/ml) was 0.5843, the “biofilm growth: OD 630 nm at 24 hrs divided by OD of control (control = 1)” value (T. forsythia; 10 μmol/ml) was 0.5942 and the “biofilm growth: OD 630 nm at 24 hrs divided by OD of control (control = 1)” value (T. forsythia; 20 μmol/ml) was 0.7398. For the same compound, the “biofilm growth: OD 630 nm at 24 hrs divided by OD of control (control = 1)” value (T. forsythia; 25 μmol/ml) was 0.6158, the “biofilm growth: OD 630 nm at 24 hrs divided by OD of control (control = 1)” value (V. parvula; 5 μmol/ml) was 1.0022 and the “biofilm growth: OD 630 nm at 24 hrs divided by OD of control (control = 1)” value (V. parvula; 10 μmol/ml) was 1.0212. For the same compound, the “biofilm growth: OD 630 nm at 24 hrs divided by OD of control (control = 1)” value (V. parvula; 20 μmol/ml) was 0.9658 and the “biofilm growth: OD 630 nm at 24 hrs divided by OD of control (control = 1)” value (V. parvula; 25 μmol/ml) was 0.9859.
